Results published in ChEMBL document CHEMBL4483862, “Open-source discovery of chemical leads for next-generation chemoprotective antimalarials” (2018).

Test system: Plasmodium berghei
Test: Luciferase/luciferin-expressing antifolate-resistant parasites were used to infect a culture of HepG2 cells that were pre-incubated with compounds. Infected hepatocytes emit light due to the luciferase reaction. Assay results are presented as the percent inhibition of light emission compared to control. […]
Type: functional
Conditions: sporozoite; for IC90: read-out: LUCIFERASE INFECTION ASSAY - IC90

SMILES: CCOC(=O)c1c(NC(=O)C(C)N2CCN(C(=O)c3ccco3)CC2)sc2c1CCCC2 (stereo not given)
- IC50 (PBLUC_HILL_SLOPE 16.5, PBLUC_R_SQUARED 0.188, read-out: LUCIFERASE INFECTION ASSAY - IC50): 9.7 µM
- IC90: > 10 µM

SMILES: O=C(Nc1csc([N+](=O)[O-])c1)Nc1ccccc1Cl
- IC50 (PBLUC_HILL_SLOPE 16.6, PBLUC_R_SQUARED 0.0194, read-out: LUCIFERASE INFECTION ASSAY - IC50): 11 µM
- IC90: > 11.1 µM

SMILES: COc1ccc(-c2cc(C(=O)NNC3=NCCC3)c3c(C)nn(-c4ccccc4)c3n2)cc1
- IC50 (PBLUC_HILL_SLOPE 16.7, PBLUC_R_SQUARED 0.16, read-out: LUCIFERASE INFECTION ASSAY - IC50): 9.26 µM
- IC90: > 10 µM

SMILES: CCOc1cccc(/C=C/c2ccc3cccc(O)c3n2)c1O
- IC50 (PBLUC_HILL_SLOPE 16.2, PBLUC_R_SQUARED 0.451, read-out: LUCIFERASE INFECTION ASSAY - IC50): 9.23 µM
- IC90: 10.6 µM

SMILES: OCCNCc1cc(Br)ccc1OCc1ccc(F)cc1
- IC50 (PBLUC_HILL_SLOPE 16.8, PBLUC_R_SQUARED 0.362, read-out: LUCIFERASE INFECTION ASSAY - IC50): 2.74 µM
- IC90: 3.12 µM

SMILES: OC(COc1ccc(Cl)cc1)CN1CCC(Cc2ccccc2)CC1 (stereo not given)
- IC50 (PBLUC_HILL_SLOPE 16.8, 4.66, PBLUC_R_SQUARED 0.391, 0.0786, read-out: LUCIFERASE INFECTION ASSAY - IC50): 6.33 µM
- IC90: 8.19 µM

SMILES: OCc1ccc(-c2cnc3cnc(-c4cccs4)cn23)cc1
- IC50 (PBLUC_HILL_SLOPE 16.2, PBLUC_R_SQUARED 0.35, read-out: LUCIFERASE INFECTION ASSAY - IC50): 9.27 µM
- IC90: 10.6 µM

SMILES: N#Cc1c(N2CCCC2)nn(C(=O)Nc2ccc(Cl)c(Cl)c2)c1N
- IC50 (PBLUC_HILL_SLOPE 16.1, PBLUC_R_SQUARED 0.491, read-out: LUCIFERASE INFECTION ASSAY - IC50): 3.39 µM
- IC90: 3.89 µM

SMILES: O=C1c2ccccc2C(=Cc2ccsc2)c2ccccc21
- IC50 (PBLUC_HILL_SLOPE 16.4, 0.310, PBLUC_R_SQUARED 0.161, 0.532, read-out: LUCIFERASE INFECTION ASSAY - IC50): 4.9 µM
- IC90: > 10 µM

SMILES: N#Cc1ccc(NC(=O)NNc2ccc(Cl)cc2Cl)cc1
- IC50 (PBLUC_HILL_SLOPE 16.6, PBLUC_R_SQUARED 0.338, read-out: LUCIFERASE INFECTION ASSAY - IC50): 9.59 µM
- IC90: > 10 µM

SMILES: Cc1ccn2c(=O)cc(CN3C(=O)NC4(CCCc5ccccc54)C3=O)nc2c1 (stereo not given)
- IC50 (PBLUC_HILL_SLOPE 16.8, PBLUC_R_SQUARED 0.349, read-out: LUCIFERASE INFECTION ASSAY - IC50): 9.44 µM
- IC90: > 10 µM

SMILES: CC1(C)CC(Nc2ncnc3sc(-c4ccccc4)cc23)CC(C)(C)N1
- IC50 (PBLUC_HILL_SLOPE 16.4, PBLUC_R_SQUARED 0.0474, read-out: LUCIFERASE INFECTION ASSAY - IC50): 8.84 µM
- IC90: > 10 µM

SMILES: CS(=O)(=O)Nc1cccc(-c2cn3c(-c4ccc(CO)cc4)cnc3cn2)c1
- IC50 (PBLUC_HILL_SLOPE 16.4, PBLUC_R_SQUARED 0.351, read-out: LUCIFERASE INFECTION ASSAY - IC50): 7.12 µM
- IC90: 8.14 µM

SMILES: Cc1ccc(Oc2ccc(NC(=O)CCc3cccnc3)cc2)cc1
- IC50 (PBLUC_HILL_SLOPE 16.6, PBLUC_R_SQUARED 0.382, read-out: LUCIFERASE INFECTION ASSAY - IC50): 8.37 µM
- IC90: 9.55 µM

SMILES: CN(Cc1ccc(C(=O)NC2CC2)cc1)S(=O)(=O)c1ccc(Br)s1
- IC50 (PBLUC_HILL_SLOPE 16.6, PBLUC_R_SQUARED 0.228, read-out: LUCIFERASE INFECTION ASSAY - IC50): 8.37 µM
- IC90: 9.55 µM

SMILES: COc1cc2c(cc1NC(=O)c1cnn(C(C)(C)C)c1C)oc1ccccc12
- IC50 (PBLUC_HILL_SLOPE 16.6, PBLUC_R_SQUARED 0.596, read-out: LUCIFERASE INFECTION ASSAY - IC50): 3.21 µM
- IC90: 3.66 µM

SMILES: COc1ccc(-c2cnc3sc(NCCc4ccc(S(N)(=O)=O)cc4)nn23)cc1OC
- IC50 (PBLUC_HILL_SLOPE 16.2, PBLUC_R_SQUARED 0.321, read-out: LUCIFERASE INFECTION ASSAY - IC50): 5.94 µM
- IC90: 6.81 µM

SMILES: CC(C1CC2CCC1C2)N1C(=O)C(=O)N(CC(=O)Nc2cccc(F)c2)C1=O (stereo not given)
- IC50 (PBLUC_HILL_SLOPE 16.7, 2.98, PBLUC_R_SQUARED 0.617, 0.740, read-out: LUCIFERASE INFECTION ASSAY - IC50): 4.13 µM
- IC90: 3.86 µM

SMILES: COc1ccc(-c2ccc3ncc(-c4ccoc4)n3n2)cc1OC
- IC50 (PBLUC_HILL_SLOPE 16.2, PBLUC_R_SQUARED 0.0483, read-out: LUCIFERASE INFECTION ASSAY - IC50): > 10 µM
- IC90: > 10 µM

SMILES: CC(c1nc(N)nc(N(C)C)n1)N1CCN(C(c2ccc(F)cc2)c2ccc(F)cc2)CC1 (stereo not given)
- IC50 (PBLUC_HILL_SLOPE 16.2, PBLUC_R_SQUARED 0.638, read-out: LUCIFERASE INFECTION ASSAY - IC50): 3.31 µM
- IC90: 3.79 µM

SMILES: Cc1onc(-c2ccc(Cl)cc2Cl)c1-c1csc(Nc2c(Cl)cccc2Cl)n1
- IC50 (PBLUC_HILL_SLOPE 16.2, PBLUC_R_SQUARED 0.0753, read-out: LUCIFERASE INFECTION ASSAY - IC50): 6.45 µM
- IC90: > 7 µM

SMILES: CCOc1ccc(-c2nc(C(=O)Nc3ncccc3O)cs2)cc1
- IC50 (PBLUC_HILL_SLOPE 16.6, PBLUC_R_SQUARED 0.386, read-out: LUCIFERASE INFECTION ASSAY - IC50): 3.36 µM
- IC90: 3.84 µM

SMILES: Cc1noc(C)c1C(=O)NNC(=O)c1ccc(Cl)cc1
- IC50 (PBLUC_HILL_SLOPE 16.2, PBLUC_R_SQUARED 0.359, read-out: LUCIFERASE INFECTION ASSAY - IC50): 11 µM
- IC90: > 11.2 µM

SMILES: O=S(=O)(c1c(Cl)cc(Br)cc1Cl)N1CCN(C(=S)NC2CC3CCC2C3)CC1 (stereo not given)
- IC50 (PBLUC_HILL_SLOPE 16.2, PBLUC_R_SQUARED 0.114, read-out: LUCIFERASE INFECTION ASSAY - IC50): 8.93 µM
- IC90: > 10 µM

SMILES: CCOc1ccc(NCC(=O)c2ccc(-c3ccccc3)cc2)cc1
- IC50 (PBLUC_HILL_SLOPE 16.8, 2.19, PBLUC_R_SQUARED 0.173, 0.582, read-out: LUCIFERASE INFECTION ASSAY - IC50): 8.7 µM
- IC90: > 10 µM

SMILES: CC(C)(C)NC(=O)CNC(=O)c1cc(-c2ccccc2)nc2c1cnn2Cc1ccccc1
- IC50 (PBLUC_HILL_SLOPE 16.4, PBLUC_R_SQUARED 0.327, read-out: LUCIFERASE INFECTION ASSAY - IC50): 9.02 µM
- IC90: > 10 µM

SMILES: CCOC(=O)c1sc(N)c(C#N)c1CSc1nnc(Cc2cccc3ccccc23)n1C1CCCCC1
- IC50 (PBLUC_HILL_SLOPE 16.7, PBLUC_R_SQUARED 0.489, read-out: LUCIFERASE INFECTION ASSAY - IC50): 8.65 µM
- IC90: 9.87 µM

SMILES: O=C(NCCN1CCc2ccccc2C1)c1cc2ccccc2cc1O
- IC50 (PBLUC_HILL_SLOPE 16.8, PBLUC_R_SQUARED 0.317, read-out: LUCIFERASE INFECTION ASSAY - IC50): 3.31 µM
- IC90: 3.77 µM

SMILES: CC1CCC(N(C)C(=O)C2CCN(S(=O)(=O)c3ccc4c(c3)CCC4)CC2)CC1 (stereo not given)
- IC50 (PBLUC_HILL_SLOPE 16.6, PBLUC_R_SQUARED 0.0251, read-out: LUCIFERASE INFECTION ASSAY - IC50): 9.82 µM
- IC90: > 10 µM

SMILES: O=c1c2ccccc2nc(SCc2cn3cc(Cl)ccc3n2)n1-c1ccccc1F
- IC50 (PBLUC_HILL_SLOPE 16.9, PBLUC_R_SQUARED 0.0163, read-out: LUCIFERASE INFECTION ASSAY - IC50): 8.93 µM
- IC90: > 10 µM

SMILES: CNc1snc(C)c1C(=O)Nc1ccc(OC)c(Cc2ccccc2)c1
- IC50 (PBLUC_HILL_SLOPE 16.3, PBLUC_R_SQUARED 0.619, read-out: LUCIFERASE INFECTION ASSAY - IC50): 0.961 µM
- IC90: 1.1 µM

SMILES: c1ccc(-c2nc(NCCCN3CCOCC3)c3cc(-c4ccccc4)sc3n2)cc1
- IC50 (PBLUC_HILL_SLOPE 16.1, PBLUC_R_SQUARED 0.337, read-out: LUCIFERASE INFECTION ASSAY - IC50): 9.75 µM
- IC90: > 10 µM

SMILES: OC(COc1ccc(Cl)c(Cl)c1)CN1CCC(Nc2nccc(C(F)(F)F)n2)CC1 (stereo not given)
- IC50 (PBLUC_HILL_SLOPE 16.2, PBLUC_R_SQUARED 0.0623, read-out: LUCIFERASE INFECTION ASSAY - IC50): 6.96 µM
- IC90: > 7.09 µM

SMILES: Cc1c(/N=c2\scc(-c3cc4ccccc4o3)n2/N=C/c2ccsc2)c(=O)n(-c2ccccc2)n1C
- IC50 (PBLUC_HILL_SLOPE 16.9, PBLUC_R_SQUARED 0.235, read-out: LUCIFERASE INFECTION ASSAY - IC50): 3.54 µM
- IC90: 4.03 µM

SMILES: CCCn1c(NC(=O)CSc2ccc3c4c(cccc24)C(=O)c2ccccc2-3)nc2ccccc21
- IC50 (PBLUC_HILL_SLOPE 16.8, PBLUC_R_SQUARED 0.332, read-out: LUCIFERASE INFECTION ASSAY - IC50): 3.39 µM
- IC90: 3.87 µM

SMILES: CCc1ccc(-n2c(SC3CCCCC3NS(=O)(=O)c3ccccc3)nc3ccccc3c2=O)cc1 (stereo not given)
- IC50 (PBLUC_HILL_SLOPE 16.5, PBLUC_R_SQUARED 0.215, read-out: LUCIFERASE INFECTION ASSAY - IC50): 3.63 µM
- IC90: 4.14 µM

SMILES: COc1ccccc1/C=C(/C(=O)OCc1cn2ccccc2c1C#N)c1ccccc1
- IC50 (PBLUC_HILL_SLOPE 16.4, PBLUC_R_SQUARED 0.216, read-out: LUCIFERASE INFECTION ASSAY - IC50): 9.92 µM
- IC90: > 10 µM

SMILES: COC(=O)c1c(NC(C)=O)c2cc(NCC3CC=CCC3)cnc2n1CCc1c[nH]c2ccccc12 (stereo not given)
- IC50 (PBLUC_HILL_SLOPE 16.1, PBLUC_R_SQUARED 0.211, read-out: LUCIFERASE INFECTION ASSAY - IC50): 6.66 µM
- IC90: > 6.8 µM

SMILES: Cc1cccc(-c2cn3c(-c4cccc(C(=O)N5CCN(C)CC5)c4)cnc3cn2)c1C
- IC50 (PBLUC_HILL_SLOPE 16.5, PBLUC_R_SQUARED 0.755, read-out: LUCIFERASE INFECTION ASSAY - IC50): 2.63 µM
- IC90: 3 µM

SMILES: Cc1c(C(=O)Nc2ccc(Oc3ccccc3)cc2)[nH]c2c1C(=O)CCC2
- IC50 (PBLUC_HILL_SLOPE 16.6, PBLUC_R_SQUARED 0.701, read-out: LUCIFERASE INFECTION ASSAY - IC50): 9.52 µM
- IC90: > 10 µM
